In patent US12053473B2, “Benzylamino substituted quinazolines and derivatives as SOS1 inhibitors” (priority 2016, dated 2024):

Target: SOS1 and KRAS G12D (protein-protein interaction) (Homo sapiens, UniProt Q07889)
Test: KRAS::SOS1 AlphaScreen binding assay
Details: not given
Experimental: KRAS::SOS1 AlphaScreen Binding Assay
Low IC50 values are indicative of high potency of the SOS1 inhibitor compound in this assay setting:
10 nM (final assay concentration) KRAS G12D, 10 μM (final assay concentration) GDP and 5 nM (final assay concentration) GST-SOS1 are mixed in assay buffer prior to use and kept at room temperature.
AlphaLSA Glutathione Acceptor Beads and AlphaScreen Streptavidin Donor Beads are mixed in assay buffer at a concentration of 10 μg/mL (final assay concentration) each prior to use and kept at room temperature.
Compounds are diluted to a final start concentration of 100 μM and are tested in duplicate. […] For compound a start concentration of 100 μM, 150 nL of compound solution is transferred per well in 11 concentrations in duplicate with serial 1:5 dilutions.
The assay is run using a fully automated robotic system in a darkened room below 100 Lux. 10 μL of KRAS::SOS1 GDP mix is added into columns 1-24 to the 150 nL of compound solution (final dilution in the assay 1:100, final DMSO concentration 1%).
After a 30 minute incubation time 5 μL of bead mix is added into columns 1-23. Plates are kept at room temperature in a darkened incubator. After a further 60 minute incubation, the signal is measured using a PerkinElmer Envision HTS Multilabel Reader using the AlphaScreen specifications from PerkinElmer. Each plate contains the following controls: • diluted DMSO+KRAS::SOS1 GDP mix+bead mix • diluted DMSO+KRAS::SOS1 GDP mix Result Calculation:
IC50 values are calculated and analyzed using a 4 parametric logistic model.

`Cc1nc(N[C@H](C)c2cccc(C(F)(F)F)c2)c2cc([C@]3(O)CC[C@H](O)CC3)cc(C)c2n1` [I-55] and `Cc1nc(N[C@H](C)c2cccc(C(F)(F)F)c2)c2cc([C@]3(O)CC[C@H](O)CC3)ccc2n1` [I-59] are the same in IC50: 20 nM for the first, 20 nM for the second.

Compared with `COc1cc2nc(C)nc(N[C@H](C)c3cccc(C(F)(F)F)c3)c2cc1[C@]1(O)CC[C@@H](O)CC1` [I-57], `COc1cc2nc(C)nc(N[C@H](C)c3cccc(C(F)(F)F)c3F)c2cc1[C@]1(O)CC[C@@H](O)CC1` [I-58] is 1.7-fold lower in IC50: 10 nM for the first, 6 nM for the second.

`Cc1nc(N[C@H](C)c2cccc(C(F)(F)F)c2)c2cc([C@]3(O)CC[C@@H](O)CC3)ccc2n1` [I-60] and `Cc1nc(N[C@H](C)c2cccc(C(F)(F)F)c2F)c2cc([C@]3(O)CC[C@@H](O)CC3)ccc2n1` [I-61] are within 1.5-fold of each other in IC50: 10 nM for the first, 8 nM for the second.

Work on `COc1cc2nc(C)nc(N[C@H](C)c3cccc(C(F)(F)F)c3)c2cc1[C@]1(O)CC[C@@H](C(=O)N(C)CCO)CC1` [I-75] yielded an IC50 of 7 nM.

Same assay, conditions: assay buffer with 100 μM EDTA (values marked with an asterisk); read-out: IC50 (SOS1)

`COc1cc2nc(C)nc(N[C@H](C)c3cccc(S(C)(=O)=O)c3)c2cc1O[C@H]1CCOC1` [I-3] and `Cc1cccc([C@@H](C)Nc2nc(C)nc3ccc([C@H]4CC[C@H](O)CC4)cc23)c1` [I-64] are within 1.5-fold of each other in IC50: 47 nM for the first, 34 nM for the second.

Same assay, conditions: assay buffer without EDTA (values not marked with an asterisk); read-out: IC50 (SOS1)

Compared with `COc1cc2nc(C)nc(N[C@H](C)c3cccc(C(F)(F)CO)c3)c2cc1O[C@H]1CCOC1` [I-1], `COc1cc2nc(C)nc(N[C@H](C)c3cccc(C4(O)COC4)c3)c2cc1O[C@H]1CCOC1` [I-16] is 13-fold higher in IC50: 3 nM for the first, 38 nM for the second.

First: COc1cc2nc(C)nc(N[C@H](C)c3cccc(C)c3)c2cc1O[C@H]1CCN(C(C)=O)C1 [I-4]
Second: COc1cc2nc(C)nc(N[C@H](C)c3cccc(C(F)(F)F)c3)c2cc1O[C@H]1CCN(C(C)=O)C1 [I-5]
The IC50 of the first is 2.3-fold higher: 30 nM for the first, 13 nM for the second. The second is the more potent here.

`COc1cc2nc(C)nc(N[C@H](C)c3cc(N)cc(C(F)(F)F)c3)c2cc1O[C@H]1CCN(C(C)=O)C1` [I-7] and `CC(=O)N1CC[C@H](Oc2cc3c(N[C@H](C)c4cc(N)cc(C(F)(F)F)c4)nc(C)nc3cc2C)C1` [I-9] are the same in IC50: 3 nM for the first, 3 nM for the second.

First: CC(=O)N1CC[C@H](Oc2cc3c(N[C@H](C)c4cc(N)cc(C(F)(F)F)c4)nc(C)nc3cc2F)C1 [I-8]
Second: CCC(=O)N1CC[C@H](Oc2cc3c(N[C@H](C)c4cc(N)cc(C(F)(F)F)c4)nc(C)nc3cc2C)C1 [I-53]
The IC50 of the first is 2-fold higher: 6 nM for the first, 3 nM for the second.

First: Cc1nc(N[C@H](C)c2cc(N)cc(C(F)(F)F)c2)c2cc(O[C@H]3CCOC3)c(C)cc2n1 [I-10]
Second: Cc1nc(N[C@H](C)c2cc(N)cc(C(F)(F)F)c2)c2cc(O[C@H]3CCN(C(=O)C4CC4)C3)c(C)cc2n1 [I-54]
The IC50 of the first is 1.8-fold higher: 7 nM for the first, 4 nM for the second. The second is the more potent here.

Going from `COc1cc2nc(C)nc(N[C@H](C)c3cccc(C4(O)COC4)c3)c2cc1C1=CCN(C(C)=O)CC1` [I-17] to `COc1cc2nc(C)nc(N[C@H](C)c3cccc(C(F)(F)F)c3)c2cc1C1(O)CCN(C(C)=O)CC1` [I-44], the IC50 falls from 34 nM to 4 nM (8.5-fold). The second is the more potent here.

Compared with `COc1c(C2(O)CCN(C(C)=O)CC2)cc2c(N[C@H](C)c3cccc(C(F)(F)F)c3F)nc(C)nc2c1C` [I-20], `COc1cc2nc(C)nc(N[C@H](C)c3cccc(C(F)(F)F)c3F)c2cc1C1(O)CCN(C(C)=O)CC1` [I-45] is 3.5-fold lower in IC50: 7 nM for the first, 2 nM for the second. The second is the more potent here.

`Cc1nc(N[C@H](C)c2cccc(C(F)(F)F)c2)c2cc(C3(O)CCS(=O)(=O)CC3)ccc2n1` [I-21] and `CC(=O)N1CCC(O)(c2ccc3nc(C)nc(N[C@H](C)c4cccc(C(F)(F)F)c4)c3c2)CC1` [I-48] are within 1.5-fold of each other in IC50: 20 nM for the first, 15 nM for the second.

Going from `CC(=O)N1CC2(C1)CC(O)(c1cc(C)c3nc(C)nc(N[C@H](C)c4cccc(C(F)(F)F)c4)c3c1)C2` [I-42] to `CC(=O)N1CCC(O)(c2cc(C)c3nc(C)nc(N[C@H](C)c4cccc(C(F)(F)F)c4)c3c2)CC1` [I-43], the IC50 falls from 26 nM to 8 nM (3.2-fold). The second is the more potent here.

`COCC(=O)N1CCC(O)(c2cc3c(N[C@H](C)c4cccc(C(F)(F)F)c4F)nc(C)nc3cc2OC)CC1` [I-46] and `COCC(=O)N1CCC(O)(c2cc3c(N[C@H](C)c4cccc(C(F)(F)F)c4)nc(C)nc3cc2OC)CC1` [I-47] are within 1.5-fold of each other in IC50: 4 nM for the first, 5 nM for the second.

Going from `COCC(=O)N1CCC(O)(c2ccc3nc(C)nc(N[C@H](C)c4cccc(C(F)(F)F)c4)c3c2)CC1` [I-49] to `Cc1nc(N[C@H](C)c2cccc(C(F)(F)F)c2)c2cc(C3(O)CCN(C(=O)N(C)C)CC3)ccc2n1` [I-50], the IC50 rises from 9 nM to 23 nM (2.6-fold). The first is the more potent here.

`CC(=O)N1CCC2(CC1)CC(O)(c1ccc3nc(C)nc(N[C@H](C)c4cccc(C(F)(F)F)c4)c3c1)C2` [I-51] and `CC(=O)O[C@H]1CC[C@](O)(c2ccc3nc(C)nc(N[C@H](C)c4cccc(C(F)(F)F)c4)c3c2)CC1` [I-67] are within 1.5-fold of each other in IC50: 23 nM for the first, 26 nM for the second.

Compared with `CC(=O)N1CCC(O)(c2ccc3nc(C)nc(N[C@H](C)c4cccc(C)c4)c3c2)CC1` [I-52], `Cc1nc(N[C@H](C)c2cccc(C(F)(F)F)c2)c2cc([C@]3(O)CC[C@H](C(=O)N(C)C)CC3)ccc2n1` [I-78] is 1.9-fold higher in IC50: 14 nM for the first, 27 nM for the second. The first is the more potent here.

Going from `Cc1nc(N[C@H](C)c2cc(N)cc(C(F)(F)F)c2)c2cc([C@H]3CC[C@H](O)CC3)ccc2n1` [I-65] to `Cc1nc(N[C@H](C)c2cc(N)cc(C(F)(F)F)c2)c2cc([C@H]3CC[C@@H](O)CC3)ccc2n1` [I-66], the IC50 rises from 8 nM to 43 nM (5.4-fold).

Compound `COc1cc2nc(C)nc(N[C@H](C)c3cccc(C(F)(F)F)c3F)c2cc1C1(O)CCC(C(=O)N(C)C)CC1` (stereo partly drawn) [I-77] has an IC50 of 5 nM.

Same assay, conditions: read-out: IC50 (SOS1)

Compared with `Cc1cccc([C@@H](C)Nc2nc(C)nc3cc(C)c(-c4ccc(C(=O)N5CCOCC5)cc4)cc23)c1` [I-83], `Cc1nc(N[C@H](C)c2cc(N)cc(C(F)(F)F)c2)c2cc(-c3ccc(=O)[nH]c3)ccc2n1` [I-102] is 4.9-fold lower in IC50: 44 nM for the first, 9 nM for the second. The second is the more potent here.

`COc1cc2nc(C)nc(N[C@H](C)c3cc(N)cc(C(F)(F)F)c3)c2cc1-c1cnn(CC(=O)N(C)C)c1` [I-84] and `Cc1nc(N[C@H](C)c2cc(N)cc(C(F)(F)F)c2)c2cc(-c3cnn(CC(=O)N(C)C)c3)ccc2n1` [I-86] are within 1.5-fold of each other in IC50: 6 nM for the first, 8 nM for the second.

`Cc1nc(N[C@H](C)c2cc(N)cc(C(F)(F)F)c2)c2cc(-c3cc4n(n3)CCC(=O)N4)ccc2n1` [I-90] gave an IC50 of 7 nM.

Same assay, conditions: read-out: IC50 (SOS1); assay buffer without EDTA (values not marked with an asterisk)

Going from `Cc1nc(N[C@H](C)c2cccc(C(F)(F)F)c2C)c2cc(C3(O)CCC(O)CC3)ccc2n1` (stereo partly drawn) [I-63] to `COc1cc2nc(C)nc(N[C@H](C)c3cccc(C(F)(F)F)c3)c2cc1C1(O)CCC(C(=O)N(C)C[C@H](C)O)CC1` (stereo partly drawn) [I-73], the IC50 rises from 9 nM to 41 nM (4.6-fold).

Same assay, conditions: values marked with * in the table; read-out: IC50 (SOS1)

`Cc1nc(N[C@H](C)c2cccc(C(F)(F)F)c2)c2cc(-c3cnn(CC(=O)N(C)C)c3)ccc2n1` [I-85] and `Cc1nc(N[C@H](C)c2cccc(C(F)(F)F)c2)c2cc(-c3ccc(=O)[nH]c3)ccc2n1` [I-100] are within 1.5-fold of each other in IC50: 41 nM for the first, 48 nM for the second.

First: Cc1cccc([C@@H](C)Nc2nc(C)nc3ccc(-c4cc5n(n4)CCC(=O)N5)cc23)c1 [I-87]
Second: Cc1nc(N[C@H](C)c2cccc(C(F)(F)F)c2)c2cc(-c3cc4n(n3)CCC(=O)N4)ccc2n1 [I-88]
The IC50 of the first is 1.7-fold lower: 18 nM for the first, 30 nM for the second. The first is the more potent here.

Going from `Cc1nc(N[C@H](C)c2cccc(C(F)(F)F)c2)c2cc(-c3cc4n(n3)CCC(=O)N4)c(C)cc2n1` [I-89] to `Cc1nc(N[C@H](C)c2cc(N)cc(C(F)(F)F)c2)c2cc(-c3ccc(=O)n(C)c3)ccc2n1` [I-104], the IC50 falls from 34 nM to 6 nM (5.7-fold).

Compared with `Cc1cccc([C@@H](C)Nc2nc(C)nc3ccc(-c4ccc(=O)[nH]c4)cc23)c1` [I-99], `Cc1cccc([C@@H](C)Nc2nc(C)nc3ccc(-c4ccc(=O)n(C)c4)cc23)c1` [I-103] is 1.6-fold higher in IC50: 29 nM for the first, 46 nM for the second. The first is the more potent here.

Compound `COc1cc2nc(C)nc(N[C@H](C)c3cccc(C)c3)c2cc1-c1ccc(=O)[nH]c1` [I-101] has an IC50 of 28 nM.
